Experiments:
[1] = system: Human keratinocytes; experiment: Cell adherency to peptide-pretreated culture dishes; type: cell-based; settings: 24 hr
Experimental: To analyze effects of peptides of this invention on proliferation of keratinocytes, SRB (Sulforhodamine B) colorimetric assay was carried out using HaCaT kerationcyte according to Rizzino et al method (Rizzino, et al. Cancer Res., 48:4266 (1988)). HaCaT ketatinocytes (The Korean Cell Line Bank) were cultured in 250 ml-flasks containing EMEM (Eagle's minimal essential media, Gibco, U.S.A.) supplemented with […] (fetal bovine serum). HaCaT ketatinocytes cultured were treated with 0.25% trypsin solution to detach cells from the bottom of culture flasks and centrifuged to collect cell pellets. Cells were resuspended in EMEM not containing FBS, its aliquot (4×10^3) cells was added to each well of 96-well plates and cultured under 7% CO2 for 24 hr at 37° C. After 24-hr culture, the medium was changed with a fresh medium not containing serum and cells were incubated with human EGF or the tri-decapeptide (10 ng/ml or 1,000 ng/ml) dissolved in 10% DMSO for 72 hr under the same conditions as described above. After removing supernatants, cells were washed once using PBS (phosphate buffered saline) and incubated with SRB solution (Sigma-Aldrich). Cells were washed with PBS and observed under a microscope to examine cell viability (FIG. 3). In addition, absorbance at 590 nm was measured to analyze cell proliferation (FIG. 4). […]

[2] = system: HaCaT keratinocytes; experiment: SRB colorimetric assay, growth of HaCaT keratinocytes; type: cell-based, human; settings: 72 hr; for cell growth / proliferation of keratinocytes (absorbance at 590 nm): 10 ng/ml or 1,000 ng/ml, serum-free
Experimental: To analyze effects of peptides of this invention on proliferation of keratinocytes, SRB (Sulforhodamine B) colorimetric assay was carried out using HaCaT kerationcyte according to Rizzino et al method (Rizzino, et al. Cancer Res., 48:4266 (1988)). HaCaT ketatinocytes (The Korean Cell Line Bank) were cultured in 250 ml-flasks containing EMEM (Eagle's minimal essential media, Gibco, U.S.A.) supplemented with […] (fetal bovine serum). HaCaT ketatinocytes cultured were treated with 0.25% trypsin solution to detach cells from the bottom of culture flasks and centrifuged to collect cell pellets. Cells were resuspended in EMEM not containing FBS, its aliquot (4×10^3) cells was added to each well of 96-well plates and cultured under 7% CO2 for 24 hr at 37° C. After 24-hr culture, the medium was changed with a fresh medium not containing serum and cells were incubated with human EGF or the tri-decapeptide (10 ng/ml or 1,000 ng/ml) dissolved in 10% DMSO for 72 hr under the same conditions as described above. After removing supernatants, cells were washed once using PBS (phosphate buffered saline) and incubated with SRB solution (Sigma-Aldrich). Cells were washed with PBS and observed under a microscope to examine cell viability (FIG. 3). In addition, absorbance at 590 nm was measured to analyze cell proliferation (FIG. 4). Cell adherency to culture dishes was tested using non-treated culture dishes and peptide-pretreated culture dishes. Human keratinocytes were plated on the culture dishes and then incubated for 24 hr, followed by observation under a microscope.

[3] = system: NIH-3T3 cell; experiment: Stability of tridecapeptide: residual activity by MTT assay after storage at 37° C; type: physicochemical; settings: 50 mM Tris-HCl pH 8.0, 37° C, days 0-100; peptide 10 μg/ml, EGF 1 μg/ml; MTT on NIH-3T3
Experimental: To evaluate stability of the synthesized and purified tridecapeptide of Example 1, the tridecapeptide was dissolved in 50 mM Tris-HCl (pH 8.0) to a concentration of 10 μg/ml. The recombinant EGF protein (Sigma-Aldrich) produced in E. coli was prepared as a control in the same buffer to a concentration of 1 μg/ml. The prepared solutions were introduced into glass vials and kept to stand at 37° C. Afterwards, the solutions were taken on days 0, 1, 10, 25, 50, 75 and 100 and subjected to MTT assay (Scudiero, D. A., et al. Cancer Res. 48:4827-4833 (1988)) using NIH-3T3 cell (Korean Cell Line Bank) to determine residual activities of the peptide and EGF (FIG. 2). The results were given as relative values to the activity (100%) of sample taken on day 0.

[4] = system: NIH3T3 cells; experiment: Cell motility after scratching the culture dish; type: cell-based; settings: NIH3T3, 1 μg/ml, 1 and 3 day treatment
Experimental: We analyzed cell motility to further verify cell proliferation potency. NIH3T3 cells were plated on 60 mm-culture dishes and cultured to a suitable fluency. The bottom surface of culture dishes was scratched using pipette and incubated with 1 μg/ml of the present peptides, followed by observing cell motility. In FIG. 6, panels A and B show cell samples non-treated with peptides and panels C and D, cell samples treated with 1 μg/ml peptides. Images of A and C were taken after 1 day-treatment, and those of B and D after 3 day-treatment.

[5] = system: EGF; experiment: Autocrine effect: EGF level in culture by ELISA; type: cell-based, human; settings: HaCat, 1 μg/ml, 6 days
Experimental: For examining autocrine effects, HaCat cell lines were incubated for 6 days with the tridecapeptides of this invention (1 μg/ml) and then the level of EGF in culture was measured using the ELISA kit (R&D, USA).

[6] = system: hyaluronic acid; experiment: Hyaluronic acid level by ELISA; type: cell-based, human; settings: HaCat, 5 μmole, 72 hr
Experimental: Furthermore, HaCat cell lines were incubated for 72 hr with 5 μmole of the present tridecapeptides and then the level of hyaluronic acid, a marker indicating the improvement in skin wrinkle, was measured using Hyaluronic acid ELISA kit (Echelon Biosciences Inc, USA) (FIG. 8).

[7] = listed as peptide of this invention

| Substance | number of cells adhered to culture dishes vs non-treated culture dishes [1, 7] | number of cells adhered to culture dishes vs non-treated culture dishes ([1]; listed as peptides of this invention) | cell growth / proliferation of keratinocytes (absorbance at 590 nm) [2] | cell growth / proliferation of keratinocytes (absorbance at 590 nm) [2, 7] | cell viability (microscope) ([2]; SRB staining) | residual activity relative to day 0 (100%) [3] | cell motility [4] | level of EGF in culture (autocrine effect) [5] | level of EGF in culture (autocrine effect) ([5]; listed as present peptide) | level of hyaluronic acid [6] |
| --- | --- | --- | --- | --- | --- | --- | --- | --- | --- | --- |
| NH2-Cys-Met-Tyr-Ile-Glu-Gly-Gly-Gly-Gly-Arg-Gly-Asp-Gly-OH (H-CMYIEGGGGRGDG-OH) [tridecapeptide] | significantly high potency | about three-fold greater | promotes the growth of human keratinocytes in a dose-dependent manner | significantly high potency | significantly high potency | not to be decreased | promote cell motility | significantly high autocrine effects on EGF | considerable increase | significantly increased |
| recombinant EGF protein: recombinant EGF protein (Sigma-Aldrich) produced in E. coli, used as control [reference compound] |  |  |  |  |  | sharply decreased |  |  |  |  |

Source: patent US8188049B2, “Peptides having activities of epidermal growth factor and its uses” (Caregen Co., Ltd., priority 2006, dated 2012)
